US20240344145A1, “PHARMACOGENOMICS SCORE TO MAKE DECISIONS ON THERAPY AUGMENTATION IN AML” (University of Florida Research Foundation, Incorporated, priority 2021, published 2024)

Tested on: ara-C metabolic pathway genes
Assay: Association of ara-C pathway SNP genotypes with MRD1, EFS and OS in AML02 (logistic regression and Cox models; also within LDAC and HDAC arms)
Parameters: species or system human
Conditions: within arm of AML02
Text: Genomic DNA from patients enrolled in the multi-site St. Jude AML02 trial was genotyped for 155 SNPs in 16 genes of relevance to ara-C pharmacology using sequenom iPlex platform that uses MALDI-TOF based chemistry at University of Minnesota, Biomedical Genomics Center. SNPs were selected based on previously reported studies. For SNPs lacking literature on genetic variation, SNPs were selected to capture LD blocks (European and African ancestry) on a gene. Of 155 SNPs, 1 SNP was excluded due to low call rate (<90%), 47 SNPs were excluded due to minimum allele frequency of less than 5%, 11 SNPs were excluded due to high LD (r^2>0.9) with other SNPs; two SNPs were excluded because of deviation from Hardy-Weinberg equilibrium. Genotype for the COG-AAML0531 cohort for the selected SNPs was obtained using sequenom platform or TaqMan genotyping assays, and for a few SNPs was extracted from the data available on Illumina 2.5 Omni array. Genotype calls from multiple platforms were confirmed across multiple samples randomly collected from the cohort.
SNP genotype groups in three different modes of inheritance (additive, dominant, and recessive) were tested for association with MRD1 using logistic regression models. Odds ratio (OR) and 95% confidence interval (CI) were calculated for each test. SNPs with association P-value<0.05 were considered significant. Cox-proportional hazard models were used to evaluate association of genotype groups with EFS or OS. Hazard ratio (HR) and 95% CI were calculated for each test. p-value<0.05 was considered statistically significant. Given initial risk group assignments are well-established prognostic factors associated with outcome, outcome association analysis of SNPs with and without adjusting for risk group was also performed to identify SNPs that are associated with outcome independent of risk group.
SNPs with p<0.15 in risk-adjusted univariate evaluation with clinical endpoints (MRD1, EFS, and OS) were tested for all possible combinations with a maximum of three SNPs per model in multivariable logistic regression models for association with MRD1 and Cox-proportional hazard models for association with EFS and OS. Analysis for up to 3 SNP combinations was restricted due to computational challenges as increasing the maximum number of SNPs per model drastically increases the number of models as 1000 permutations were run for each model. Models were ordered according to their Bayesian Information Criterion (BIC) and weight in favor of each model. One thousand permutation tests were performed for each model to determine statistical significance. The six unique SNPs from the most significant models for EFS and MRD1 were included in the development of the ACS10 score as described in the results section.
The multicenter AML02 clinical trial randomly assigned subjects to receive low dose ara-C (LDAC: 100 mg/m^2; n=91 patients) or high dose ara-C(HDAC: 3 g/m^2; n=75 patients) in combination with daunorubicin and etoposide as the first course of chemotherapy as described above in patient cohort section. Thus, the association of SNPs with outcome within each arm separately was also explored (Table 5).

[1] = rs4917384 (NT5C2, WT C, VAR T), MOI D
[2] = rs4980345 (SLC28A1, WT G, VAR A), MOI A
[3] = rs6552622 (DCTD, WT C, VAR G), MOI D
[4] = rs6742272 (RRM2, WT C, VAR G), MOI A
[5] = rs6834938 (DCTD, WT C, VAR T), MOI R
[6] = rs6946062 (NT5C3, WT T, VAR C), MOI D
[7] = rs7533657 (CTPS1, WT C, VAR T), MOI R
[8] = rs7543016 (CMPK1, WT C, VAR G), MOI R
[9] = rs7776847 (NT5C3, WT G, VAR A), MOI A
[10] = rs7874528 (SLC28A3, WT G, VAR T), MOI D
[11] = rs10252880 (NT5C3, WT G, VAR C), MOI A
[12] = rs10767827 (RRM1, WT G, VAR T), MOI D
[13] = rs10786736 (NT5C2, WT G, VAR C), MOI D
[14] = rs10916819 (CDA, WT A, VAR G), MOI D
[15] = rs11140525 (SLC28A3, WT G, VAR A), MOI A
[16] = rs11191558 (NT5C2, WT G, VAR A), MOI D
[17] = rs11737887 (DCTD, WT T, VAR C), MOI A
[18] = rs12554292 (SLC28A3, WT C, VAR T), MOI D
[19] = rs12806698 (RRM1, WT C, VAR A), MOI D
[20] = rs17103168 (CMPK1, WT A, VAR G), MOI D

## Nc1ccn([C@@H]2O[C@H](CO)[C@@H](O)[C@@H]2O)c(=O)n1 [LDAC, cytarabine]
[1]
  EFS HR (95% CI): 1.04 (0.76-1.44)
  MRD1 OR (95% CI): 0.78 (0.51-1.19)
  OS HR (95% CI): 0.87 (0.58-1.29)
[2]
  EFS HR (95% CI): 1.81 (1-3.26)
  MRD1 OR (95% CI): 1.08 (0.45-2.58)
  OS HR (95% CI): 1.84 (0.95-3.55)
[3]
  EFS HR (95% CI): 1.05 (0.7-1.59)
  MRD1 OR (95% CI): 0.86 (0.49-1.49)
  OS HR (95% CI): 1.22 (0.77-1.94)
[4]
  EFS HR (95% CI): 1.5 (0.95-2.36)
  MRD1 OR (95% CI): 0.49 (0.25-0.96)
  OS HR (95% CI): 1.43 (0.83-2.48)
[5]
  EFS HR (95% CI): 1.4 (0.83-2.35)
  MRD1 OR (95% CI): 1.92 (0.82-4.48)
  OS HR (95% CI): 1.75 (1.02-3)
[6]
  EFS HR (95% CI): 0.75 (0.54-1.04)
  MRD1 OR (95% CI): 0.94 (0.61-1.46)
  OS HR (95% CI): 0.58 (0.39-0.87)
[7]
  EFS HR (95% CI): 1.12 (0.62-2.02)
  MRD1 OR (95% CI): 0.9 (0.36-2.27)
  OS HR (95% CI): 1.05 (0.51-2.16)
[8]
  EFS HR (95% CI): 0.85 (0.55-1.32)
  MRD1 OR (95% CI): 2.01 (1.13-3.58)
  OS HR (95% CI): 0.67 (0.37-1.23)
[9]
  EFS HR (95% CI): 1.15 (0.64-2.09)
  MRD1 OR (95% CI): 0.92 (0.42-2)
  OS HR (95% CI): 1.91 (1.01-3.62)
[10]
  EFS HR (95% CI): 0.97 (0.66-1.44)
  MRD1 OR (95% CI): 1.93 (1.12-3.32)
  OS HR (95% CI): 0.89 (0.54-1.45)
[11]
  EFS HR (95% CI): 1.21 (0.74-1.98)
  MRD1 OR (95% CI): 0.97 (0.51-1.82)
  OS HR (95% CI): 1.98 (1.13-3.44)
[12]
  EFS HR (95% CI): 1.09 (0.76-1.57)
  MRD1 OR (95% CI): 0.98 (0.6-1.61)
  OS HR (95% CI): 0.97 (0.61-1.53)
[13]
  EFS HR (95% CI): 1.45 (1.03-2.03)
  MRD1 OR (95% CI): 1.1 (0.66-1.83)
  OS HR (95% CI): 1.37 (0.9-2.08)
[14]
  EFS HR (95% CI): 1.77 (1.14-2.75)
  MRD1 OR (95% CI): 1.75 (1.08-2.83)
  OS HR (95% CI): 2.05 (1.12-3.74)
[15]
  EFS HR (95% CI): 0.98 (0.63-1.54)
  MRD1 OR (95% CI): 1.44 (0.81-2.58)
  OS HR (95% CI): 1.16 (0.68-1.97)
[16]
  EFS HR (95% CI): 1.49 (1.05-2.1)
  MRD1 OR (95% CI): 0.96 (0.56-1.64)
  OS HR (95% CI): 1.32 (0.85-2.05)
[17]
  EFS HR (95% CI): 1.39 (0.73-2.66)
  MRD1 OR (95% CI): 0.95 (0.4-2.25)
  OS HR (95% CI): 1.76 (0.8-3.86)
[18]
  EFS HR (95% CI): 0.71 (0.42-1.2)
  MRD1 OR (95% CI): 1.26 (0.72-2.21)
  OS HR (95% CI): 0.78 (0.43-1.42)
[19]
  EFS HR (95% CI): 0.98 (0.69-1.39)
  MRD1 OR (95% CI): 1.14 (0.72-1.8)
  OS HR (95% CI): 1.19 (0.79-1.79)
[20]
  EFS HR (95% CI): 0.96 (0.69-1.32)
  MRD1 OR (95% CI): 0.55 (0.35-0.87)
  OS HR (95% CI): 1.03 (0.69-1.52)
